In US20230082430A1 (C4 Therapeutics, Inc., priority 2019, published 2023):

tested on: NCIH929.1 cells; experiment: Cell viability assay for Table 2 (CellTiter-Glo 2.0, ATP quantification, 96 hr); type: cell-based; conditions: 96 h, NCIH929.1 cell viability, 96 hr, top concentration 1 μM, 14 points half log titration; read-out: IC50
From the text: Cell Viability Assay for Table 2
CellTiter-Glo® 2.0 Assay was purchased from Promega (Madison, Wis., USA). NCIH929.1 cell line was purchased from ATCC (Manassas, Va., USA). Cell culture flasks and 384-well microplates were acquired from VWR (Radnor, Pa., USA).

Compound | IC50 [nM]
CC1(n2cc(Cc3ccc4c5c(cccc35)C(=O)N4C3CCC(=O)NC3=O)cn2)CCN(C(=O)C(C)(C)C(F)(F)F)CC1 (stereo not drawn) [Compound 82, 3-(6-((1-(4-methyl-1-(3,3,3-trifluoro-2,2-dimethylpropanoyl)piperidin-4-yl)-1H-pyrazol-4-yl)methyl)-2-oxobenzo[cd]indol-1(2H)-yl)piperidine-2,6-dione] | < 1
CC(C)(C)CN1CCC(n2cc(Cc3ccc4c5c(cccc35)C(=O)N4C3CCC(=O)NC3=O)cn2)CC1 (stereo not drawn) [Compound 63, 3-(6-((1-(1-neopentylpiperidin-4-yl)-1H-pyrazol-4-yl)methyl)-2-oxobenzo[cd]indol-1(2H)-yl)piperidine-2,6-dione] | < 1
COC1(CN2CCC(C)(n3cc(Cc4ccc5c6c(cccc46)C(=O)N5C4CCC(=O)NC4=O)cn3)CC2)CC1 (stereo not drawn) [Compound 101, 3-(6-((1-(1-((1-methoxycyclopropyl)methyl)-4-methylpiperidin-4-yl)-1H-pyrazol-4-yl)methyl)-2-oxobenzo[cd]indol-1(2H)-yl)piperidine-2,6-dione] | < 1
O=C1CCC(N2C(=O)c3cccc4c(Cc5ccc(CN6CCCOCC6)cc5)ccc2c34)C(=O)N1 (stereo not drawn) [Compound 123, 3-(6-(4-((1,4-oxazepan-4-yl)methyl)benzyl)-2-oxobenzo[cd]indol-1(2H)-yl)piperidine-2,6-dione] | < 1
O=C1CCC(N2C(=O)c3cccc4c(Cc5ccc(CN6CC7CCC(C6)O7)cc5)ccc2c34)C(=O)N1 (stereo not drawn) [Compound 115, 3-(6-(4-((8-oxa-3-azabicyclo[3.2.1]octan-3-yl)methyl)benzyl)-2-oxobenzo[cd]indol-1(2H)-yl)piperidine-2,6-dione] | < 1
N#CC1(CN2CCC(n3cc(Cc4ccc5c6c(cccc46)C(=O)N5C4CCC(=O)NC4=O)cn3)CC2)CC1 (stereo not drawn) [Compound 199, 1-[[4-[4-[[1-(2,6-dioxo-3-piperidyl)-2-oxo-benzo[cd]indol-6-yl]methyl]pyrazol-1-yl]-1-piperidyl]methyl]cyclopropanecarbonitrile] | < 1
CC1(n2cc(Cc3ccc4c5c(cccc35)C(=O)N4C3CCC(=O)NC3=O)cn2)CCN(C(=O)C2CCN(c3ccccn3)CC2)CC1 (stereo not drawn) [Compound 272, 3-[6-[[1-[4-methyl-1-[1-(2-pyridyl)piperidine-4-carbonyl]-4-piperidyl]pyrazol-4-yl]methyl]-2-oxo-benzo[cd]indol-1-yl]piperidine-2,6-dione] | < 1
CC1(C(=O)N2CCC(n3cc(Cc4ccc5c6c(cccc46)C(=O)N5C4CCC(=O)NC4=O)c4cccnc43)CC2)CCC1 (stereo not drawn) [Compound 253, 3-[6-[[1-[1-(1-methylcyclobutanecarbonyl)-4-piperidyl]pyrrolo[2,3-b]pyridin-3-yl]methyl]-2-oxo-benzo[cd]indol-1-yl]piperidine-2,6-dione] | < 1
O=C1CCC(N2C(=O)c3cccc4c(Cc5ccc(CN6CCOCC6)cc5)ccc2c34)C(=O)N1 (single isomer, unassigned) [Compound 220, 3-(6-(4-(morpholinomethyl)benzyl)-2-oxobenzo[cd]indol-1(2H)-yl)piperidine-2,6-dione] | < 1
O=C1CCC(N2C(=O)c3cccc4c(Cc5cnn(C6CCN(C(=O)C78COC(C7)C8)CC6)c5)ccc2c34)C(=O)N1 (stereo not drawn) [Compound 37, 3-(6-((1-(1-(2-oxabicyclo[2.1.1]hexane-4-carbonyl)piperidin-4-yl)-1H-pyrazol-4-yl)methyl)-2-oxobenzo[cd]indol-1(2H)-yl)piperidine-2,6-dione] | < 1
CC1(C(=O)N2CCC(c3ccn(Cc4ccc5c6c(cccc46)C(=O)N5C4CCC(=O)NC4=O)n3)CC2)CCC1 (stereo not drawn) [Compound 180, 3-[6-[[3-[1-(1-methylcyclobutanecarbonyl)-4-piperidyl]pyrazol-1-yl]methyl]-2-oxo-benzo[cd]indol-1-yl]piperidine-2,6-dione] | < 1
CC1(n2cc(Cc3ccc4c5c(cccc35)C(=O)N4C3CCC(=O)NC3=O)cn2)CCN(C(=O)C23COC(C2)C3)CC1 (stereo not drawn) [Compound 71, 3-(6-{1-[4-Methyl-1-(2-oxa-bicyclo[2.1.1]hexane-4-carbonyl)-piperidin-4-yl]-1H-pyrazol-4-ylmethyl}-2-oxo-2H-benzo[cd]indol-1-yl)-piperidine-2,6-dione] | < 1
CC1(n2cc(Cc3ccc4c5c(cccc35)C(=O)N4C3CCC(=O)NC3=O)cn2)CCN(CC2(C#N)CC2)CC1 (stereo not drawn) [Compound 102, 1-((4-(4-((1-(2,6-dioxopiperidin-3-yl)-2-oxo-1,2-dihydrobenzo[cd]indol-6-yl)methyl)-1H-pyrazol-1-yl)-4-methylpiperidin-1-yl)methyl)cyclopropane-1-carbonitrile] | < 1
CC(C)(C)OC(=O)N1CCC(c2ccc3c4c(cccc24)C(=O)N3C2CCC(=O)NC2=O)CC1 (stereo not drawn) [Compound 276, tert-butyl 4-[1-(2,6-dioxo-3-piperidyl)-2-oxo-benzo[cd]indol-6-yl]piperidine-1-carboxylate] | > 999
CC1(C(=O)N2CCN(c3ccc(Cc4ccc5c6c(cccc46)C(=O)N5C4CCC(=O)NC4=O)cc3)CC2)CCC1 (stereo not drawn) [Compound 167, 3-[6-[[4-[4-(1-methylcyclobutanecarbonyl)piperazin-1-yl]phenyl]methyl]-2-oxo-benzo[cd]indol-1-yl]piperidine-2,6-dione] | < 1
N#Cc1ccc2c3c(cccc13)C(=O)N2C1CCC(=O)NC1=O (stereo not drawn) [Compound 145, 1-(2,6-dioxopiperidin-3-yl)-2-oxo-1,2-dihydrobenzo[cd]indole-6-carbonitrile] | > 999
O=C1CCC(N2C(=O)c3cccc4c(Cc5ccc(C6(N7CCN(c8ccccc8F)CC7)CC6)cc5)ccc2c34)C(=O)N1 (stereo not drawn) [Compound 264, 3-[6-(4-{1-[4-(2-Fluoro-phenyl)-piperazin-1-yl]-cyclopropyl}-benzyl)-2-oxo-2H-benzo[cd]indol-1-yl]-piperidine-2,6-dione] | < 1
CC(C)(C)C[C@H]1CC[C@H](n2cc(Cc3ccc4c5c(cccc35)C(=O)N4C3CCC(=O)NC3=O)cn2)CC1 (stereo partly drawn) [Compound 260, 3-(6-((1-((1s,4s)-4-neopentylcyclohexyl)-1H-pyrazol-4-yl)methyl)-2-oxobenzo[cd]indol-1(2H)-yl)piperidine-2,6-dione] | < 1
CC1(C)C(N2CCC(n3cc(Cc4ccc5c6c(cccc46)C(=O)N5C4CCC(=O)NC4=O)cn3)CC2)C1(C)C (stereo not drawn) [Compound 240, 3-(2-oxo-6-((1-(1-(2,2,3,3-tetramethylcyclopropyl)piperidin-4-yl)-1H-pyrazol-4-yl)methyl)benzo[cd]indol-1(2H)-yl)piperidine-2,6-dione] | < 1

same assay, conditions: NCIH929.1 cell viability, 96 hr, top concentration 1 μM, 14 points half log titration; read-out: IC50

Compound | IC50 [nM]
CC1(CN2CCC(n3cc(Cc4ccc5c6c(cccc46)C(=O)N5C4CCC(=O)NC4=O)cn3)CC2)CCC1 (single isomer, unassigned) [Compound 237, 3-[6-[[1-[1-[(1-methylcyclobutyl)methyl]-4-piperidyl]pyrazol-4-yl]methyl]-2-oxo-benzo[cd]indol-1-yl]piperidine-2,6-dione] | < 1
CC1(CN2CCC(n3cc(Cc4ccc5c6c(cccc46)C(=O)N5C4CCC(=O)NC4=O)cn3)CC2)CC1 (single isomer, unassigned) [Compound 235, 3-[6-[[1-[1-[(1-methylcyclopropyl)methyl]-4-piperidyl]pyrazol-4-yl]methyl]-2-oxo-benzo[cd]indol-1-yl]piperidine-2,6-dione] | < 1
